Tested on: yeast genes (expressed mRNA)
Test: DNA chip measurement of expressed mRNA of yeast genes after culture with a toxic chemical substance
Format: cell-based, Saccharomyces cerevisiae S288C
Description: Yeast (Saccharomyces cerevisiae S288C (a SUC2mal mel gap2 CUP1)) were cultured at 25° C. on YPD medium (yeast extract 1%, polypeptone 2%, glucose 2%). One of toxic chemical substances was added to the cell at logarithmic growth phase, and the cell was further cultured for two hours. Cell was cultured without any chemical substance in the same condition, and was used as a control. Concentrations of the chemical substances were defined to inhibit the growth of the yeast but not lead to death.
After the completion of cultivation, the culture was centrifuged to collect the cells. To the cells, sodium acetate buffer (50 mM sodium acetate, 10 mM EDTA, 1% SDS) was added, and the mixture was shaken at 65° C. for five minutes, followed by returning to room temperature, and obtaining the supernatant, which procedure was repeated two times. To the supernatant, ½ amount of a solution of phenol/chloroform (1:1) was added, and the mixture was centrifuged to give a supernatant, an equal amount of chloroform was added, and the mixture was centrifuged to give a supernatant. To the supernatant, an equal amount of isopropanol containing 0.3 M sodium acetate was added, and the mixture was allowed to stand at room temperature for 30 minutes, after which the mixture was centrifuged to give sediment of the whole RNAs. Seventy % ethanol was added to the sediment, and the mixture was again centrifuged to give sediment, which was then dried and dissolved in water. mRNA was isolated from the whole RNAs as followings. In view of the fact that a poly A chain is attached to the 3′ terminus of mRNA, a polynucleotide having a poly T structure which was immobilized on the surface of latex beads was used to trap the mRNA, and then the mRNA was washed and eluted with spine column (Oligotex-dT30<Super>mRNA Purification Kit, Takara). Reverse transcription of the mRNA was conducted with a reverse transcriptase (Super Script II Reverse Transcriptase; catalogue No. 18064-014, GibcoBRL) using fluorescence-labeled nucleotides to give cDNAs that were introduced with Cy3-dUTP or Cy5-dUTP during the reverse transcription.
The labeled cDNAs were dissolved in TE buffer (10 mM Tris-HCl/1 mM EDTA, pH 8.0), and the solution was dropped on the DNA chip containing the whole genes of yeast (DNA Chip Research Inc. Japan) so that the cDNAs were hybridized on the DNA chip at 65° C. for over 12 hours. The fluoresces intensity of the DNA chip was read with a scanner, and the ratio relative to the fluorescence intensity resulting from the absence of chemical substance was estimated as the following, which is shown in Tables 1 to 9.
In the Tables, “Intensity” indicated in the rightmost column is a value of the level of expressed mRNA of each gene in control cells as divided by the average level of the expressions of the whole genes. A gene of which mRNA level is lower in control, and is higher in cases of addition of chemical substance, is especially useful in the detection of toxic substances.
Here, when a ratio of an amount of mRNA expressed in the presence of the chemical substance to an amount of mRNA expressed in the absence of the chemical substance is two or more, then it is considered significant.

N#Cc1c(Cl)c(Cl)c(Cl)c(C#N)c1Cl [(9), 2,4,5,6-Tetrachloro-1,3-benzenedicarbonitrile]
The level of expressed mRNA in the presence of chemical substance/The level of expressed mRNA in the absence of chemical substance (yeast gene YJL108C, cultured two hours with substance): 0.3 | The level of expressed mRNA in the presence of chemical substance/The level of expressed mRNA in the absence of chemical substance (yeast gene YJL144W, cultured two hours with substance): 14.6 | The level of expressed mRNA in the presence of chemical substance/The level of expressed mRNA in the absence of chemical substance (yeast gene YJL149W, cultured two hours with substance): 1.5 | The level of expressed mRNA in the presence of chemical substance/The level of expressed mRNA in the absence of chemical substance (yeast gene YJL151C, cultured two hours with substance): 0.5 | The level of expressed mRNA in the presence of chemical substance/The level of expressed mRNA in the absence of chemical substance (yeast gene YJL152W, cultured two hours with substance): 0.3 | The level of expressed mRNA in the presence of chemical substance/The level of expressed mRNA in the absence of chemical substance (yeast gene YJL161W, cultured two hours with substance): 3.1 | The level of expressed mRNA in the presence of chemical substance/The level of expressed mRNA in the absence of chemical substance (yeast gene YJL163C, cultured two hours with substance): 14.5 | The level of expressed mRNA in the presence of chemical substance/The level of expressed mRNA in the absence of chemical substance (yeast gene YJL171C, cultured two hours with substance): 1.0 | The level of expressed mRNA in the presence of chemical substance/The level of expressed mRNA in the absence of chemical substance (yeast gene YJL186W, cultured two hours with substance): 0.2 | The level of expressed mRNA in the presence of chemical substance/The level of expressed mRNA in the absence of chemical substance (yeast gene YJR008W, cultured two hours with substance): 1.8 | The level of expressed mRNA in the presence of chemical substance/The level of expressed mRNA in the absence of chemical substance (yeast gene YJR074W, cultured two hours with substance): 3.7 | The level of expressed mRNA in the presence of chemical substance/The level of expressed mRNA in the absence of chemical substance (yeast gene YJR085C, cultured two hours with substance): 3.7 | The level of expressed mRNA in the presence of chemical substance/The level of expressed mRNA in the absence of chemical substance (yeast gene YJR155W): 38.2 | The level of expressed mRNA in the presence of chemical substance/The level of expressed mRNA in the absence of chemical substance (yeast gene YJR155W, cultured for two hours with substance): 38.2 | The level of expressed mRNA in the presence of chemical substance/The level of expressed mRNA in the absence of chemical substance (yeast gene YKL071W, cultured two hours with substance): 162.2 | The level of expressed mRNA in the presence of chemical substance/The level of expressed mRNA in the absence of chemical substance (yeast gene YKL086W, cultured two hours with substance): 8.2 | The level of expressed mRNA in the presence of chemical substance/The level of expressed mRNA in the absence of chemical substance (yeast gene YKL107W, cultured two hours with substance): 28.2 | The level of expressed mRNA in the presence of chemical substance/The level of expressed mRNA in the absence of chemical substance (yeast gene YKL151C, cultured two hours with substance): 3.3 | The level of expressed mRNA in the presence of chemical substance/The level of expressed mRNA in the absence of chemical substance (yeast gene YKL153W, cultured two hours with substance): 0.8 | The level of expressed mRNA in the presence of chemical substance/The level of expressed mRNA in the absence of chemical substance (yeast gene YKL195W, cultured two hours with substance): 3.6 | The level of expressed mRNA in the presence of chemical substance/The level of expressed mRNA in the absence of chemical substance (yeast gene YKR091W, cultured two hours with substance): 1.0 | The level of expressed mRNA in the presence of chemical substance/The level of expressed mRNA in the absence of chemical substance (yeast gene YLL055W (transport facilitation protein gene)): 19.1 | The level of expressed mRNA in the presence of chemical substance/The level of expressed mRNA in the absence of chemical substance (yeast gene YLL056C, cultured two hours with substance): 58.8 | The level of expressed mRNA in the presence of chemical substance/The level of expressed mRNA in the absence of chemical substance (yeast gene YLL060C (stress protein genes)): 13.0 | The level of expressed mRNA in the presence of chemical substance/The level of expressed mRNA in the absence of chemical substance (yeast gene YLL062C, cultured two hours with substance): 14.9 | The level of expressed mRNA in the presence of chemical substance/The level of expressed mRNA in the absence of chemical substance (yeast gene YLR031W, cultured two hours with substance): 0.9 | The level of expressed mRNA in the presence of chemical substance/The level of expressed mRNA in the absence of chemical substance (yeast gene YLR054C, cultured two hours with substance): 2.7 | The level of expressed mRNA in the presence of chemical substance/The level of expressed mRNA in the absence of chemical substance (yeast gene YLR149C, cultured two hours with substance): 6.2 | The level of expressed mRNA in the presence of chemical substance/The level of expressed mRNA in the absence of chemical substance (yeast gene YLR152C, cultured two hours with substance): 0.6 | The level of expressed mRNA in the presence of chemical substance/The level of expressed mRNA in the absence of chemical substance (yeast gene YLR194C, cultured two hours with substance): 0.9 | The level of expressed mRNA in the presence of chemical substance/The level of expressed mRNA in the absence of chemical substance (yeast gene YLR204W, cultured two hours with the substance): 1.4 | The level of expressed mRNA in the presence of chemical substance/The level of expressed mRNA in the absence of chemical substance (yeast gene YLR205C, cultured two hours with substance): 1.5 | The level of expressed mRNA in the presence of chemical substance/The level of expressed mRNA in the absence of chemical substance (yeast gene YLR324W, cultured two hours with substance): 3.1 | The level of expressed mRNA in the presence of chemical substance/The level of expressed mRNA in the absence of chemical substance (yeast gene YLR350W, cultured two hours with substance): 0.6 | The level of expressed mRNA in the presence of chemical substance/The level of expressed mRNA in the absence of chemical substance (yeast gene YLR387C, cultured two hours with substance): 7.8 | The level of expressed mRNA in the presence of chemical substance/The level of expressed mRNA in the absence of chemical substance (yeast gene YLR460C, cultured two hours with substance): 13.9 | The level of expressed mRNA in the presence of chemical substance/The level of expressed mRNA in the absence of chemical substance (yeast gene YML117W, cultured two hours with substance): 1.0 | The level of expressed mRNA in the presence of chemical substance/The level of expressed mRNA in the absence of chemical substance (yeast gene YMR009W, cultured two hours with substance): 3.4 | The level of expressed mRNA in the presence of chemical substance/The level of expressed mRNA in the absence of chemical substance (yeast gene YMR067C, cultured two hours with substance): 4.0 | The level of expressed mRNA in the presence of chemical substance/The level of expressed mRNA in the absence of chemical substance (yeast gene YMR090W, cultured two hours with substance): 16.7 | The level of expressed mRNA in the presence of chemical substance/The level of expressed mRNA in the absence of chemical substance (yeast gene YMR097C, cultured two hours with substance): 2.1 | The level of expressed mRNA in the presence of chemical substance/The level of expressed mRNA in the absence of chemical substance (yeast gene YMR102C, cultured two hours with substance): 1.7 | The level of expressed mRNA in the presence of chemical substance/The level of expressed mRNA in the absence of chemical substance (yeast gene YMR107W, cultured two hours with substance): 6.0 | The level of expressed mRNA in the presence of chemical substance/The level of expressed mRNA in the absence of chemical substance (yeast gene YMR140W, cultured two hours with substance): 1.8 | The level of expressed mRNA in the presence of chemical substance/The level of expressed mRNA in the absence of chemical substance (yeast gene YMR180C, cultured two hours with substance): 1.8 | The level of expressed mRNA in the presence of chemical substance/The level of expressed mRNA in the absence of chemical substance (yeast gene YMR184W, cultured two hours with substance): 2.1 | The level of expressed mRNA in the presence of chemical substance/The level of expressed mRNA in the absence of chemical substance (yeast gene YMR191W, cultured two hours with substance): 2.2 | The level of expressed mRNA in the presence of chemical substance/The level of expressed mRNA in the absence of chemical substance (yeast gene YMR195W, cultured two hours with substance): 0.2 | The level of expressed mRNA in the presence of chemical substance/The level of expressed mRNA in the absence of chemical substance (yeast gene YMR295C, cultured two hours with substance): 1.0 | The level of expressed mRNA in the presence of chemical substance/The level of expressed mRNA in the absence of chemical substance (yeast gene YMR315W, cultured two hours with substance): 2.4
